Results reported in patent US11840686B2, “Modulation of prekallikrein (PKK) expression” (Ionis Pharmaceuticals, Inc., priority 2013, dated 2023).
Strand notation (5' to 3'): a small letter for the sugar, then the base; units joined by * are phosphorothioate-linked, units joined directly phosphodiester-linked; [ ] holds rarer units or linkages, { } end groups; capitals alone tell only the bases. e = 2'-O-(2-methoxyethyl) (MOE); [5mC] = 5-methylcytosine; d = 2'-deoxy (DNA)

Tested on: human PKK mRNA
Test: Antisense inhibition of human PKK mRNA in HepaRG cells, 5,000 nM (Example 2)
Format: cell-based
Procedure: Additional antisense oligonucleotides were designed targeting a PKK nucleic acid and were tested for their effects on PKK mRNA in vitro.
The chimeric antisense oligonucleotides in the tables below were designed as 5-10-5 MOE gapmers, 4-9-4 MOE gapmers, 4-10-4 MOE gapmers, 4-10-3 MOE gapmers, 3-10-4 MOE gapmers, or 3-10-3 MOE gapmers. The 5-10-5 MOE gapmers are 20 nucleosides in length, wherein the central gap segment comprises of ten 2′-deoxynucleosides and is flanked by wing segments on the 5′ direction and the 3′ direction comprising five nucleosides each. The 4-9-4 MOE gapmers are 17 nucleosides in length, wherein the central gap segment comprises of nine 2′-deoxynucleosides and is flanked by wing segments on the 5′ direction and the 3′ direction comprising four nucleosides each. The 4-10-4 MOE gapmers are 18 nucleosides in length, wherein the central gap segment comprises of ten 2′-deoxynucleosides and is flanked by wing segments on the 5′ direction and the 3′ direction comprising four nucleosides each. The 4-10-3 MOE gapmers are 17 nucleosides in length, wherein the central gap segment comprises of ten 2′-deoxynucleosides and is flanked by wing segments on the 5′ direction and the 3′ direction comprising four and three nucleosides respectively. The 3-10-4 MOE gapmers are 17 nucleosides in length, wherein the central gap segment comprises often 2′-deoxynucleosides and is flanked by wing segments on the 5′ direction and the 3′ direction comprising three and four nucleosides respectively. The 3-10-3 MOE gapmers are 16 nucleosides in length, wherein the central gap segment comprises of ten 2′-deoxynucleosides and is flanked by wing segments on the 5′ direction and the 3′ direction comprising three nucleosides each. Each nucleoside in the 5′ wing segment and each nucleoside in the 3′ wing segment has a 2′-O-methoxyethyl modification. The internucleoside linkages throughout each gapmer are phosphorothioate linkages. All cytosine residues throughout each gapmer are 5-methylcytosines. “Start site” indicates the 5′-most nucleoside to which the gapmer is targeted in the human gene sequence. “Stop site” indicates the 3′-most nucleoside to which the gapmer is targeted in the human gene sequence.
Cultured HepaRG™ cells at a density of 20,000 cells per well were transfected using electroporation with 5,000 nM antisense oligonucleotide. After a treatment period of approximately 24 hours, RNA was isolated from the cells and PKK mRNA levels were measured by quantitative real-time PCR. Human primer probe set RTS3454 was used to measure mRNA levels. PKK mRNA levels were adjusted according to total RNA content, as measured by RIBOGREEN®. The antisense oligonucleotides were tested in a series of experiments that had similar culture conditions. Results are presented as percent inhibition of PKK, relative to untreated control cells.

[1] = HepaRG cells, electroporation with 5,000 nM antisense oligonucleotide, approximately 24 hours, PKK mRNA by RT-PCR (RTS3454), relative to untreated control cells, Table 5 experiment
[2] = HepaRG cells, 5,000 nM antisense oligonucleotide, 5-10-5 gapmers, Table 17
[3] = HepaRG cells, 5,000 nM antisense oligonucleotide, 5-10-5 gapmers, Table 16
[4] = human PKK mRNA in HepaRG cells, 5-10-5 gapmers, Table 14
[5] = Table 13, human PKK mRNA in HepaRG cells, 5-10-5 gapmers
[6] = human PKK mRNA, HepaRG cells, 5,000 nM antisense oligonucleotide, Table 18

With “547312 (antisense eA*eT*eG*eT*eA*d[5mC]*dT*dT*dT*dT*dG*dG*d[5mC]*dA*dG*eG*eG*eT*eT*e[5mC]) [compound 547312]” the “% inhibition” value [1] was 46%.
In the case of “547307 (antisense eG*eA*eA*eG*e[5mC]*dA*dA*d[5mC]*d[5mC]*dA*dA*dA*d[5mC]*d[5mC]*dT*eT*eT*eT*e[5mC]*eT) [compound 547307]”, the “% inhibition” value [1] is reported as 58%.
In the case of “547080 (eG*eT*eG*e[5mC]*eA*dA*dG*dA*d[5mC]*d[5mC]*dT*dT*dG*d[5mC]*dT*eT*eG*e[5mC]*e[5mC]*eA; antisense) [compound 547080]”, the “% inhibition” value [2] is reported as 54%.
“547710 (antisense eT*eG*e[5mC]*eG*eG*dT*dT*dA*dT*dA*dT*dG*dG*dG*d[5mC]*eT*eG*eA*eA*eG) [compound 547710]” was tested, and the “% inhibition” value [3] was 85%.
In the case of “546883 (e[5mC]*eT*eA*eG*eT*dT*dT*d[5mC]*d[5mC]*dT*dA*dT*dA*dA*d[5mC]*eA*eG*eT*eA*eT; antisense) [compound 546883]”, the “% inhibition” value [4] is reported as 19%.
“546822 (eA*e[5mC]*eT*eA*eG*dT*dT*dT*d[5mC]*d[5mC]*dT*dA*dT*dA*dA*e[5mC]*eT*eG*e[5mC]*eT; antisense) [compound 546822]” was tested, and the “% inhibition” value [5] was 32%.
“548760 (antisense eT*eA*eA*e[5mC]*dA*dG*dT*dA*dT*d[5mC]*dA*d[5mC]*dT*eG*eT*eA*e[5mC]) [compound 548760]” was tested, and the “% inhibition” value [6] was 53%.
With “548739 (DNA eG*eT*eA*e[5mC]*dT*dA*dG*dT*dT*dT*d[5mC]*d[5mC]*dT*eA*eT*eA*eA; antisense) [compound 548739]” the “% inhibition” value [6] was 0%.
For “548716 (DNA eT*eA*eT*d[5mC]*dA*d[5mC]*dT*dG*dT*dA*d[5mC]*dT*dA*eG*eT*eT; antisense) [compound 548716]”, the “% inhibition” value (HepaRG cells, 5,000 nM antisense oligonucleotide, human PKK mRNA, Table 18) was 10%.
With “547691 (antisense eA*e[5mC]*eT*eG*eT*dA*dA*d[5mC]*dA*dA*dT*dA*dT*d[5mC]*dA*e[5mC]*eT*eG*eT*e[5mC]) [compound 547691]” the “% inhibition” value [3] was 36%.
“548779 (antisense eG*eT*e[5mC]*e[5mC]*dT*dA*dT*dA*dA*d[5mC]*dT*dA*dT*eA*eA*e[5mC]*eA) [compound 548779]” was tested, and the “% inhibition” value [6] was 0%.
With “547742 (eA*eT*e[5mC]*eG*eG*dT*dG*dG*dT*dG*dG*dG*dA*dT*dT*eG*eG*eT*e[5mC]*eG; antisense) [compound 547742]” the “% inhibition” value [2] was 57%.
In the case of “547546 (antisense e[5mC]*eA*eT*eA*e[5mC]*dT*d[5mC]*dG*d[5mC]*d[5mC]*dT*dT*dT*dG*dT*eG*eA*eT*eG*e[5mC]) [compound 547546]”, the “% inhibition” value (HepaRG cells, electroporation, 5,000 nM antisense oligonucleotide, approx. 24 hours, primer probe set RTS3454, relative to untreated control cells, Table 12) is reported as 11%.
For “547619 (antisense eT*e[5mC]*e[5mC]*eT*eA*dT*dA*dA*d[5mC]*dA*dG*dT*dA*dT*d[5mC]*eA*e[5mC]*eT*eG*eT) [compound 547619]”, the “% inhibition” value [4] was 70%.
For “546354 (antisense eG*eT*eA*e[5mC]*eT*d[5mC]*dA*dG*d[5mC]*dG*dA*d[5mC]*dT*dT*dT*eG*eG*eT*eG*eT) [compound 546354]”, the “% inhibition” value (HepaRG cells, electroporation, 5,000 nM antisense oligonucleotide, approx. 24 hours, primer probe set RTS3454, relative to untreated control cells, Table 11) was 47%.
“547451 (antisense eT*eT*eG*eG*eT*dG*dA*dA*dT*dA*dA*dT*dA*dA*dT*e[5mC]*eT*e[5mC]*eT*eT) [compound 547451]” was tested, and the “% inhibition” value (Table 9 experiment, HepaRG cells, 20,000 cells per well, electroporation with 5,000 nM antisense oligonucleotide, approx. 24 hours, PKK mRNA by RT-PCR (RTS3454), relative to untreated control cells) was 75% and the “% inhibition” value (Table 10 experiment, HepaRG cells, 20,000 cells per well, electroporation with 5,000 nM antisense oligonucleotide, approx. 24 hours, PKK mRNA by RT-PCR (RTS3454), relative to untreated control cells) was 64%.
In the case of “546845 (eT*eG*eT*e[5mC]*e[5mC]*dT*dA*dT*dA*dT*d[5mC]*dA*d[5mC]*dT*dG*eT*e[5mC]*e[5mC]*eT*eA; antisense) [compound 546845]”, the “% inhibition” value [5] is reported as 75%.
In the case of “547331 (antisense eA*eG*e[5mC]*eA*e[5mC]*dT*dT*dA*dT*dT*dT*dG*dA*dT*dG*eA*e[5mC]*e[5mC]*eA*e[5mC]) [compound 547331]”, the “% inhibition” value (HepaRG cells, electroporation with 5,000 nM antisense oligonucleotide, approximately 24 hours, PKK mRNA by RT-PCR (RTS3454), relative to untreated control cells, Table 6 experiment) is reported as 47%.
“546131 (eA*eT*eG*eA*eA*d[5mC]*dG*dG*dT*d[5mC]*dT*dT*d[5mC]*dA*dA*eG*e[5mC]*eT*eG*eT; antisense) [compound 546131]” was tested, and the “% inhibition” value [1] was 75%.
With “546288 (antisense eG*eT*eT*eT*eG*dT*dT*d[5mC]*d[5mC]*dT*d[5mC]*d[5mC]*dA*dA*d[5mC]*eA*eA*eT*eG*e[5mC]) [compound 546288]” the “% inhibition” value (Table 8, HepaRG cells, electroporation with 5,000 nM antisense oligonucleotide, approx. 24 hours, PKK mRNA by RT-PCR (RTS3454), relative to untreated control cells) was 78%.
